Common to all, as to assay: Off target activity panel
In one assay the test system is GABA transporter. Format: binding. The conditions noted are these: 10 µM.
The target of another assay is Muscarinic M2 receptor (Homo sapiens, UniProt P08172). Format: binding. The conditions noted are these: read-out: Inhibition at test concentration (%).
A further assay has as its target Serotonin 5-HT7 (Homo sapiens, UniProt P34969). Format: binding. Particulars: read-out: Inhibition at test concentration (%).
A further assay concerns the target Dopamine D4 receptor (Homo sapiens, UniProt P21917). Format: binding. Particulars: read-out: Inhibition at test concentration (%).
For another assay, the target named is Muscarinic M3 receptor (Homo sapiens, UniProt P20309). Format: binding. The conditions noted are these: read-out: Inhibition at test concentration (%).
Sequence of Muscarinic M3 receptor (P20309 whole entry): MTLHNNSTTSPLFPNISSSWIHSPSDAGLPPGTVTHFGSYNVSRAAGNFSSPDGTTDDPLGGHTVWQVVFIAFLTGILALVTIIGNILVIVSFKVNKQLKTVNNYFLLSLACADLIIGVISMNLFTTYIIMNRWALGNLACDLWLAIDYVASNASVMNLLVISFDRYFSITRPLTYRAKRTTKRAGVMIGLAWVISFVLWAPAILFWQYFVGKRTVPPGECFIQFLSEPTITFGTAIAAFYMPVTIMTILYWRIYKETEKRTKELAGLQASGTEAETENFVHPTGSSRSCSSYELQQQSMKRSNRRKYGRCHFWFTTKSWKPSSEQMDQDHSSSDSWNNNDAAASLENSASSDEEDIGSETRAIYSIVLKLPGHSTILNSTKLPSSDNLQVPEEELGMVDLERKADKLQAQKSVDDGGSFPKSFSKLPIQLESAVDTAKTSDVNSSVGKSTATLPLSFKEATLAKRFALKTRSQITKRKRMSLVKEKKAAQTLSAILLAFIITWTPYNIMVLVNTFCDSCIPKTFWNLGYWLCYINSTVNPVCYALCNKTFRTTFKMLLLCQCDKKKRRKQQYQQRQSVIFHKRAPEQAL
In another assay the target is Dopamine D2 receptor (Homo sapiens, UniProt P14416). Format: binding. The conditions noted are these: read-out: Inhibition at test concentration (%).
Sequence of Dopamine D2 receptor (P14416 whole entry): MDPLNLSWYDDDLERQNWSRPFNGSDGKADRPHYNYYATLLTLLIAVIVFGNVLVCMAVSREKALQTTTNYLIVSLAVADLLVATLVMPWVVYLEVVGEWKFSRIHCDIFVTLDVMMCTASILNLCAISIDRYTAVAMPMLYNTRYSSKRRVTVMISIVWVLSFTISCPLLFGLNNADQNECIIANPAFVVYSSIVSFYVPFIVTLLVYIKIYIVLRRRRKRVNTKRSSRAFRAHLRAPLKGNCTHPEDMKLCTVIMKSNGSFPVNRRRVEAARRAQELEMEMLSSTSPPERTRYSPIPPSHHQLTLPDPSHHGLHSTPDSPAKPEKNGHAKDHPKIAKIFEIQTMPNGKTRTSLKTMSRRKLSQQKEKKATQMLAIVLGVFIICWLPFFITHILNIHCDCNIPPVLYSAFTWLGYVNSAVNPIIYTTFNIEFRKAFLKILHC
For a further assay, the target named is Cannabinoid receptor 2 (Homo sapiens, UniProt P34972). Format: binding. Particulars: read-out: Inhibition at test concentration (%).
Sequence of Cannabinoid receptor 2 (P34972 whole entry): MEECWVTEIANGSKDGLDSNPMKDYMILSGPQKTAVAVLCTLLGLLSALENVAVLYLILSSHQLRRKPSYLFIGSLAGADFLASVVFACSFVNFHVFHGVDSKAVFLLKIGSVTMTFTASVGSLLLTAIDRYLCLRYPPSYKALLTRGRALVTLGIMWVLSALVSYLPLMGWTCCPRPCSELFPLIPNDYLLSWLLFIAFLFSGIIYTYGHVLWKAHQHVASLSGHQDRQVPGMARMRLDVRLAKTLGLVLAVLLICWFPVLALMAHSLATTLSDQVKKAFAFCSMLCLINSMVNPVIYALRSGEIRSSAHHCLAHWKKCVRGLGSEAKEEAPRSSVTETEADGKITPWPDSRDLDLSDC
The target in assay [1] is Adrenergic alpha 2A receptor (Homo sapiens, UniProt P08913). Format: binding. Particulars: read-out: Inhibition at test concentration (%).
Sequence of Adrenergic alpha 2A receptor (P08913 whole entry): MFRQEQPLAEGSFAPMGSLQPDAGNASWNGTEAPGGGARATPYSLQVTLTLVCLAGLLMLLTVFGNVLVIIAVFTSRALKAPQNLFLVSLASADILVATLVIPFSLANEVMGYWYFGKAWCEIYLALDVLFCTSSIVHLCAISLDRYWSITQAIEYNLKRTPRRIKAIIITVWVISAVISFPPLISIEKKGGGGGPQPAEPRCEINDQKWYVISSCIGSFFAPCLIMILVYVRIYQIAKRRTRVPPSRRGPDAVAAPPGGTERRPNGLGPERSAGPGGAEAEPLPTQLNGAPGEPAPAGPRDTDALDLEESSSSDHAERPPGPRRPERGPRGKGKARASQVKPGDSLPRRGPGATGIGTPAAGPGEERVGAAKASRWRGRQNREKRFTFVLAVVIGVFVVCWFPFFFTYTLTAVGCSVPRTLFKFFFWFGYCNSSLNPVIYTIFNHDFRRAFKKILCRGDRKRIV
A further assay has as its target Adenosine A3 receptor (Homo sapiens, UniProt P0DMS8). Format: binding. Particulars: read-out: Inhibition at test concentration (%).
Another assay has as its system GABA Benzodiazepine site. Format: binding. The conditions noted are these: 10 µM.
The subject of another assay is PDE6. Format: biochemical. Particulars: 10 µM.
Assay [2] relates to Cloride channel (GABA-gated). Format: binding.

Sequence of Muscarinic M2 receptor (P08172 whole entry): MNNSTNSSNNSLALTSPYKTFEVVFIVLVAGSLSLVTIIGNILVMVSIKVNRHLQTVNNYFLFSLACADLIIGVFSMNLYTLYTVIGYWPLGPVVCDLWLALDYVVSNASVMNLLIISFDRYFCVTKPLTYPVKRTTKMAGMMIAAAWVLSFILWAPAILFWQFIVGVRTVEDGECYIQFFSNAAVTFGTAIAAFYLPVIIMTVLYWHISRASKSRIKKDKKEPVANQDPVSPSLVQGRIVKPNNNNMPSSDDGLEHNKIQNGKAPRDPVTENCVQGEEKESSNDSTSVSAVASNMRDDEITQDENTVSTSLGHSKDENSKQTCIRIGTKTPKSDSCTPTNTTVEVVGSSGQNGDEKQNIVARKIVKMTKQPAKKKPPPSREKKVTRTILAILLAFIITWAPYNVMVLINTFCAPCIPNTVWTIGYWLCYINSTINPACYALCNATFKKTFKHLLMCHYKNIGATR
Sequence of Adenosine A3 receptor (P0DMS8 whole entry): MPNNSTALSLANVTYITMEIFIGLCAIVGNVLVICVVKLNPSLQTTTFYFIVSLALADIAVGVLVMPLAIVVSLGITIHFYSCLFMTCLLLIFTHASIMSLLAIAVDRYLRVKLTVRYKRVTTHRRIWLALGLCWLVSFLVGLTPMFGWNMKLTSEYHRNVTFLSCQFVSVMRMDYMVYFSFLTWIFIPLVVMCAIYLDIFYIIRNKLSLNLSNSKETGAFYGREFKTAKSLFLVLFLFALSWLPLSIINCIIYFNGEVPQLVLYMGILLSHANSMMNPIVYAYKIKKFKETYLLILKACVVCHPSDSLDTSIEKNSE
Sequence of Serotonin 5-HT7 (P34969 whole entry): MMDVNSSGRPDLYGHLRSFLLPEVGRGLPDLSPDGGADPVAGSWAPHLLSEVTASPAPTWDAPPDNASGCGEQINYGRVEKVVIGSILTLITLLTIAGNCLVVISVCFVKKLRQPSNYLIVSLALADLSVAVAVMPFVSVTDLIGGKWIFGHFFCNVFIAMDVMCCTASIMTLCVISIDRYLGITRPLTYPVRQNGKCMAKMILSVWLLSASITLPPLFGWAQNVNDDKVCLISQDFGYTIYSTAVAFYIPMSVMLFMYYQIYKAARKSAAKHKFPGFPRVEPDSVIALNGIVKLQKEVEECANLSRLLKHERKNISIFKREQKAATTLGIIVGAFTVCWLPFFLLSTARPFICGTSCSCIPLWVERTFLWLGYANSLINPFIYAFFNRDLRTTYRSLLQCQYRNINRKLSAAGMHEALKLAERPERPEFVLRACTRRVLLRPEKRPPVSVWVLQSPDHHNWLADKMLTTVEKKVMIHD
Sequence of Dopamine D4 receptor (P21917 whole entry): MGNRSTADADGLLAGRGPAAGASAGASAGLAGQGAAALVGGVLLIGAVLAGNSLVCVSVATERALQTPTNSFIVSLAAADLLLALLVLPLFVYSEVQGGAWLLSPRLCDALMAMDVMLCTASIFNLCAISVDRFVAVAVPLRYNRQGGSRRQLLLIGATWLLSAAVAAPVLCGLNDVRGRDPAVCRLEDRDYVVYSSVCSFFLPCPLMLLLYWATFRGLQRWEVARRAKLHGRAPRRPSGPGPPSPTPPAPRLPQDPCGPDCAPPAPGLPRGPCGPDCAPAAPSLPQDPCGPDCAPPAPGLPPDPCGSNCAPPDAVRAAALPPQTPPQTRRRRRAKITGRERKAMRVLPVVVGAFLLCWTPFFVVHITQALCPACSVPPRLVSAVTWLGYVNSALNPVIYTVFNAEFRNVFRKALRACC

`Nc1[nH]ncc1-c1cc(Cl)ccc1Oc1cc(F)c(S(=O)(=O)Nc2cscn2)cc1Cl` [PF-05089771, 4-[2-(5-amino-1H-pyrazol-4-yl)-4-chlorophenoxy]-5-chloro-2-fluoro-N-(1,3-thiazol-4-yl)benzenesulfonamide]: the “Inhibition at test concentration (%)” value came to 1% in the assay with GABA transporter, 5% with GABA Benzodiazepine site, 7% with PDE6 and 54% in assay [2] (10 µM). For the same molecule, the inhibition at 10 µM was 3% on Muscarinic M2 receptor; -7% on Serotonin 5-HT7; 5% on Dopamine D4 receptor; 16% at Muscarinic M3 receptor; 10% at Dopamine D2 receptor; -5% at Cannabinoid receptor 2. For the same molecule, the figures for the inhibition at 10 µM (in assay [1]; at Adenosine A3 receptor) were 10% and 4%, respectively. Affinity in [2] (Cloride channel (GABA-gated)) was put at a Ki of 8.3 µM.

The Inhibition is the change of the read-out against control, counted positive when it falls. A low value points to little suppression. For orientation: Ki means the dissociation constant of the complex between target and ligand, obtained from inhibition or displacement.

The values above are taken from article PMC4822888, “Subtype-Selective Small Molecule Inhibitors Reveal a Fundamental Role for Nav1.7 in Nociceptor Electrogenesis, Axonal Conduction and Presynaptic Release” (PLoS ONE, 2016).
